Results as given in patent US6540976B1, “Method for reducing radiation toxicity” (The Board of Trustees of the University of Arkansas, priority 1997, dated 2003).

Columns and labels:
[1] = system: radiation enteropathy (irradiated small bowel); test: Rat small bowel radiation enteropathy model, single dose irradiation; type: in vivo, rats
Experimental: A 4-cm segment of distal ileum was sutured to the inside of the scrotum in orchiectomized male rats, thus forming an artificial “scrotal hernia”. The afferent bowel was divided 10 cm proximal to the “hernia”, an end ileostomy was prepared, and intestinal continuity was restored by end-to-side anastomosis. The intestine in the “hernia” was subsequently exposed to 0, 18, or 21 Gy single dose, or 8 daily fractions of 5.6 Gy (total dose 44.8 Gy), external beam X-irradiation. […] Mucosal injury was monitored non-invasively by assessment of granulocyte marker protein (GMP) excretion. Irradiated and shielded intestine were procured 2 weeks after irradiation and assessed for structural changes by histopathologic scoring, and for TGF-β, IL-1α, and ED-2 macrophage antigen immunoreactivity. Radiation injury scores are Ad the sum of 7 different histopathologic parameters graded according to severity. Intestinal wall thickness was measured with light microscopy and a stage micrometer. Intestinal wall TGF-β immunoreactivity levels were measured with computerized image analysis, and the number of ED-2 positive cells (macrophages) were counted with a light microscope and fields were determined according to a predetermined grid pattern.

[2] = system: radiation enteropathy (irradiated small bowel); test: Rat small bowel radiation enteropathy model, fractionated radiation; type: in vivo, rats; settings: 8 x 5.6 Gy, 30 mg/kg q.d. for 14 days
Experimental: A 4-cm segment of distal ileum was sutured to the inside of the scrotum in orchiectomized male rats, thus forming an artificial “scrotal hernia”. The afferent bowel was divided 10 cm proximal to the “hernia”, an end ileostomy was prepared, and intestinal continuity was restored by end-to-side anastomosis. The intestine in the “hernia” was subsequently exposed to 0, 18, or 21 Gy single dose, or 8 daily fractions of 5.6 Gy (total dose 44.8 Gy), external beam X-irradiation. Orazipone or vehicle was injected through the stoma from 3 days prior to 2 weeks after irradiation. Mucosal injury was monitored non-invasively by assessment of granulocyte marker protein (GMP) excretion. Irradiated and shielded intestine were procured 2 weeks after irradiation and assessed for structural changes by histopathologic scoring, and for TGF-β, IL-1α, and ED-2 macrophage antigen immunoreactivity. Radiation injury scores are Ad the sum of 7 different histopathologic parameters graded according to severity. Intestinal wall thickness was measured with light microscopy and a stage micrometer. Intestinal wall TGF-β immunoreactivity levels were measured with computerized image analysis, and the number of ED-2 positive cells (macrophages) were counted with a light microscope and fields were determined according to a predetermined grid pattern.
To evaluate the effects of Orazipone following fractionated radiation, the transposed loop of small bowel was exposed to sham-irradiation or 8 daily fractions of 5.6 Gy (total dose 44.8 Gy). Orazipone (30 mg/kg q.d.) or vehicle was delivered for 14 days in 2 separate experimental groups. Group 1 received the drug during and after irradiation (radiation day 2 through post-radiation day 7), while Group 2 received the drug only after irradiation (post-radiation days 0 through 13). All animals were euthanized on post-radiation day 14.

mononuclear cells = settings: cited from earlier work
neutrophils = settings: cited from earlier work
T-cell = settings: cited from earlier work
[3] = in vivo; cited from earlier work
[4] = single dose irradiation, vs vehicle-treated controls, p<0.01
[5] = given either during or after irradiation

## CC(=O)C(=Cc1ccc(S(C)(=O)=O)cc1)C(C)=O [Orazipone]
[1]; 30 mg/kg daily for 1 week after a single dose of 21 Gy
  TGF-β overexpression: significantly attenuated
[1]; 30 mg/kg daily for 1 week after a single dose of 21 Gy, reduced from 80% (control)
  frequency of subacute severe small bowel radiation toxicity: 25%
[1]; single dose irradiation
  GMP excretion: not significantly affected
  macrophage accumulation: not significantly affected
[1]; [4]
  extracellular matrix-associated TGF-β immunoreactivity: less
  histopathologic injury of irradiated intestine: less
[1]; single dose irradiation, vs vehicle-treated controls, p<0.05
  intestinal wall thickening: less
[1]; single dose irradiation, vs vehicle-treated controls, p=0.05
  IL-1α positive cells: less
[2]; [5]
  subacute radiation enteropathy as assessed by Radiation Injury Score: significantly ameliorated
  subacute radiation enteropathy as assessed by extracellular matrix-associated TGF-β immunoreactivity: significantly ameliorated
  subacute radiation enteropathy as assessed by intestinal wall thickness: significantly ameliorated
[2]; among the treatment groups
  extent of mucosal injury (mucosal surface area measurements): did not differ
Mononuclear cells
  release of IL-1α, IL-1β and TNFα from mononuclear cells: inhibits
neutrophils
  NADPH oxidase and LTB4 production by neutrophils: suppresses
T-cell
  T-cell proliferation and IL-2 release: reduces
[3]
  fate of absorbed drug (metabolism): broken down into inactive metabolites very quickly
